Data: patent publication US9975896B2, “Inhibitors of transcription factors and uses thereof” (Dana-Farber Cancer Institute, Inc., priority 2013, dated 2018)
Read-outs that look alike come from different tables or passages of the source.

Experiments:
BRD3(1) = target: T1, BRD3(1) (Homo sapiens, UniProt Q15059); test: BromoScan selectivity panel (Kd); type: binding
T1 construct: the bromodomain-containing protein is BRD3(1)

WDR9(2) = target: T2, WDR9(2) (Homo sapiens, UniProt Q9NSI6); test: BromoScan selectivity panel (Kd); type: binding
T2 construct: WDR9(2)
T2 sequence (Q9NSI6 1313-1418 limits assumed): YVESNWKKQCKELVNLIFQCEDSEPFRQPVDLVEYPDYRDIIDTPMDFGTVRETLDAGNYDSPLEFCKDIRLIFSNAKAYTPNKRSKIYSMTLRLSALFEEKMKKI

FALZ = FALZ (Homo sapiens, UniProt Q12830); test: BromoScan selectivity panel (Kd); type: binding
BRDT(1) = target: T3, BRDT(1) (Homo sapiens, UniProt Q58F21); test: BromoScan selectivity panel (Kd); type: binding
T3 construct: the bromodomain-containing protein is BRDT(1)

BRD4 = BRD4 (Homo sapiens, UniProt O60885); test: In vitro AlphaScreen protein binding assay (competition with biotinylated JQ1); details: for IC50: AlphaScreen
Method: Assays were performed with minor modifications from the manufacturer's protocol (PerkinElmer, USA). All reagents were diluted in 50 mM HEPES, 150 mM NaCl, 0.1% w/v BSA, and 0.01% w/v Tween® 20 at pH 7.5 and allowed to equilibrate to room temperature prior to addition to plates. After addition of Alpha beads to master solutions, all subsequent steps were performed in low light conditions. […] After a 1000-rpm spin-down for 1 minute, 100 nL of the solutions of compounds of the invention in DMSO from stock plates were added by pin transfer using a Janus Workstation (PerkinElmer, USA). The streptavidin-coated donor beads (25 μg/ml final) were added as with previous solution in a 2×, 10 μL volume. Following this addition, the plates were sealed with foil to block light exposure and to prevent evaporation. The plates were spun down again at 1000 rpm for 1 minute. Next, the plates were incubated in the room with the plate reader (for temperature equilibration) for 1 hour prior to reading the assay. Signal is stable for up to 3 hours after donor bead addition.

BRD2(1) = target: T4, BRD2(1) (Homo sapiens, UniProt P25440); test: BromoScan selectivity panel (Kd); type: binding
T4 construct: the bromodomain-containing protein is BRD2(1)
T4 sequence (P25440 74-180 limits assumed): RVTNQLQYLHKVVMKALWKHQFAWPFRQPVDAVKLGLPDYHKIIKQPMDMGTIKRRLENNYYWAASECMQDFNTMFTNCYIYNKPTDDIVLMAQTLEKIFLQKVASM

TRIM33(PHD Bromo.) = target: T5, TRIM33(PHD Bromo.) (Homo sapiens, UniProt Q9UPN9); test: BromoScan selectivity panel (Kd); type: binding
T5 construct: TRIM33(PHD, Bromo.); TRIM33(PHD Bromo.); fused on or other part: The vendor panel's detection tag or display handle
T5 sequence (Q9UPN9 1-1127): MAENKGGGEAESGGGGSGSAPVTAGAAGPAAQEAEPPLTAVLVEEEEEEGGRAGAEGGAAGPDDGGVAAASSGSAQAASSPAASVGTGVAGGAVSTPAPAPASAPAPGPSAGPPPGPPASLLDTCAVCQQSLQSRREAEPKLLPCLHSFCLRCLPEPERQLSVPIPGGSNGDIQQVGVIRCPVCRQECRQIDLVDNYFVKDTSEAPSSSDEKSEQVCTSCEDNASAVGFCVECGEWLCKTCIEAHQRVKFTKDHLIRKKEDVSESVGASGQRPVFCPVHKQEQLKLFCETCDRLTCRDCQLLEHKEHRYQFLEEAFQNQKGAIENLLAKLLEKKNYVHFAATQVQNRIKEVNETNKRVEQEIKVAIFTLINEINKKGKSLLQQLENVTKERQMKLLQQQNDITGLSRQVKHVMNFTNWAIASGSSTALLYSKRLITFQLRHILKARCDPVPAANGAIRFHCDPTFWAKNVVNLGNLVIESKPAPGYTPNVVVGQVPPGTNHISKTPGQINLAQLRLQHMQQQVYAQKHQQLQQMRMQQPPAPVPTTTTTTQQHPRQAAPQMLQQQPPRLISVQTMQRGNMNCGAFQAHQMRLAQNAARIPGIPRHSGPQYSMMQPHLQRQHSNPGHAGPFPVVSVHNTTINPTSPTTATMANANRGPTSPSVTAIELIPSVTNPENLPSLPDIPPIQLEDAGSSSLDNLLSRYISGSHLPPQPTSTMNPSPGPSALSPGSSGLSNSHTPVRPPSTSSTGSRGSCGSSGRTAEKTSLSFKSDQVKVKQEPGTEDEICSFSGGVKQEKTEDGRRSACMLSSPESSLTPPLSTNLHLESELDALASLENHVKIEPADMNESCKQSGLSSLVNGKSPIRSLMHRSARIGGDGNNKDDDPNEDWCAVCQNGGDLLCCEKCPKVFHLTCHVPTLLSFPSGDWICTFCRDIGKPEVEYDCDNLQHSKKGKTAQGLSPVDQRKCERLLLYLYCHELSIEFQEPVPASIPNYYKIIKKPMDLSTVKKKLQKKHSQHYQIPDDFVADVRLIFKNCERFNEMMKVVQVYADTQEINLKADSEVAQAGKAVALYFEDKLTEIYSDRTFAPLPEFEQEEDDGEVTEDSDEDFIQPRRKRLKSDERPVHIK

BRPF3 = target: T6, BRPF3 (Homo sapiens, UniProt Q9ULD4); test: BromoScan selectivity panel (Kd); type: binding
T6 sequence (Q9ULD4 589-693 limits assumed): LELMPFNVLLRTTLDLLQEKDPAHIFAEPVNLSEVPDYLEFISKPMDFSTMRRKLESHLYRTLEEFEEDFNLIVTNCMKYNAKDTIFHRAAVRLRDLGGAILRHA

TAF1(2) = target: T7, TAF1(2) (Homo sapiens, UniProt P21675); test: BromoScan selectivity panel (Kd); type: binding
T7 construct: TAF1(2)
T7 sequence (P21675 1519-1628 limits assumed): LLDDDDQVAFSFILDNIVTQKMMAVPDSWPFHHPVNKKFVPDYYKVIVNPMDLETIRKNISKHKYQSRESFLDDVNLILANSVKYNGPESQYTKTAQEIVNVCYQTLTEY

BRD3(2) = target: T8, BRD3(2) (Homo sapiens, UniProt Q15059); test: BromoScan selectivity panel (Kd); type: binding
T8 construct: the bromodomain-containing protein is BRD3(2)
T8 sequence (Q15059 306-415 limits assumed): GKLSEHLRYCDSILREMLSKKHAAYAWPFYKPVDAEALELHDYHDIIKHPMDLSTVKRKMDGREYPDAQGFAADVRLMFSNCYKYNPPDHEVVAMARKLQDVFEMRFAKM

ATAD2A = target: T9, ATAD2A (Homo sapiens, UniProt Q6PL18); test: BromoScan selectivity panel (Kd); type: binding
T9 sequence (Q6PL18 981-1108 limits assumed): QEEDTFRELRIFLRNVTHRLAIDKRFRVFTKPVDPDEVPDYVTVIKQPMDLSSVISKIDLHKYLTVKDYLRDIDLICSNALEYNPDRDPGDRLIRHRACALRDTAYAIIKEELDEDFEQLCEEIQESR

EP300 = target: T10, EP300 (Homo sapiens, UniProt Q09472); test: BromoScan selectivity panel (Kd); type: binding
T10 sequence (Q09472 1040-1161 limits assumed): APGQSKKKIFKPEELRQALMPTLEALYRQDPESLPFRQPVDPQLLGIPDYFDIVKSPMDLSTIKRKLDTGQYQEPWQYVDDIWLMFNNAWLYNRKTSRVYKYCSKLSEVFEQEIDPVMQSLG

T1 sequence (Q15059 34-140 limits assumed): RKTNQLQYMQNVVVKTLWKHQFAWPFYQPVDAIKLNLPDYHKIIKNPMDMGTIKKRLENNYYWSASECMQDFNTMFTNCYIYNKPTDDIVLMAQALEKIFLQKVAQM

For Cc1noc(C)c1-c1ccc(-c2nc3cnccn3c2NC(C)(C)C)cc1 [UMB32, N-(tert-butyl)-2-(4-(3,5-dimethylisoxazol-4-yl)phenyl)imidazo[1,2-a]pyrazin-3-amine], the Kd (BRD3(1); Table 8, read-out: Kd (nM) BRD3(1)) was 35 nM, the Kd (BRD3(1); Table 9, read-out: BromoScan Kd, nM BRD3(1)) was 35 nM and the Kd (WDR9(2); Table 8, read-out: Kd (nM) WDR9(2)) was no less than 40000 nM. It also gave a Kd (WDR9(2); Table 9, read-out: BromoScan Kd, nM WDR9(2)) of no less than 40000 nM, a Kd (FALZ; Table 8, read-out: Kd (nM) FALZ) of no less than 40000 nM and a Kd (FALZ; Table 9, read-out: BromoScan Kd, nM FALZ) of no less than 40000 nM. It also gave a Kd (BRDT(1); Table 8, read-out: Kd (nM) BRDT(1)) of 110 nM, a Kd (BRDT(1); Table 9, read-out: BromoScan Kd, nM BRDT(1)) of 110 nM and an IC50 (BRD4; BRD4 IC50 (μM), Table 3) of 0.26 µM. The IC50 (BRD4; IC50 (M), Table 1, in vitro, inhibiting the activity of BRD4) was 0.256 µM, the “inhibition of the activity of BRD4 in vitro” value (BRD4; text b614, b618) was “active in inhibiting the activity of BRD4 in vitro” and the Kd (BRD2(1); Table 8, read-out: Kd (nM) BRD2(1)) was 94 nM. For the same compound, the Kd (BRD2(1); Table 9, read-out: BromoScan Kd, nM BRD2(1)) was 94 nM, the Kd (TRIM33(PHD Bromo.); Table 8, read-out: Kd (nM) TRIM33(PHD Bromo.)) was no less than 40000 nM and the Kd (TRIM33(PHD Bromo.); Table 9, read-out: BromoScan Kd, nM TRIM33(PHD, Bromo.)) was no less than 40000 nM. The Kd (BRPF3; Table 8, read-out: Kd (nM) BRPF3) was no less than 40000 nM, the Kd (BRPF3; Table 9, read-out: BromoScan Kd, nM BRDF3) was no less than 40000 nM and the Kd (TAF1(2); Table 8, read-out: Kd (nM) TAF1(2)) was 560 nM. For the same compound, the Kd (TAF1(2); Table 9, read-out: BromoScan Kd, nM TAF1(2)) was 560 nM, the Kd (BRD3(2); Table 8, read-out: Kd (nM) BRD3(2)) was 38 nM and the Kd (BRD3(2); Table 9, read-out: BromoScan Kd, nM BRD3(2)) was 38 nM. The Kd (ATAD2A; Table 8, read-out: Kd (nM) ATAD2A) was no less than 40000 nM, the Kd (ATAD2A; Table 9, read-out: BromoScan Kd, nM ATAD2A) was no less than 40000 nM and the Kd (EP300; Table 8, read-out: Kd (nM) EP300) was 4500 nM. The Kd (EP300; Table 9, read-out: BromoScan Kd, nM EP300) was 4500 nM.
